Assay results as given in patent publication US11529359B2, “Use of GABAA receptor modulators for treatment of itch” (UNIVERSITÄT ZÜRICH, priority 2016, dated 2022).

Legend:
α-Me-5HT-induced itch = assay: α-methyl 5-HT-induced itch (cheek injection) in wild-type mice; format: in vivo, wild-type mice (129X1/SvJ)
[1] = system: contact dermatitis-induced chronic itch; assay: oxazolone contact dermatitis model of chronic itch in wild-type mice; format: in vivo, wild-type C57BL6/J mice; conditions: 10 mg/kg i.p. on day 18; 15 to 210 min after injection
Procedure: Thus, TPA023B is, in accordance with the other findings of the inventors, suitable as an antipruritic substance.
This was independent of the treatment they received from day 7 to day 27.
The inventors sought to confirm the antipruritic efficacy of α2 and α3 GABAA receptor agonists against contact dermatitis-induced chronic itch. To this end, N-desmethyl clobazam, a benzodiazepine with improved activity at α2 versus α1 was assessed for its antipruritic effects (Jensen et al. PLoS One. 2014 Feb. 12; 9(2):e88456.).
Chronic itch was investigated in the contact dermatitis model (Kido-Nakahara, M., et al. J Clin Invest, 2014, 124, 2683-2695). Mice were treated once with 10% oxazolone in acetone/olive oil (4:1 v/v) on the shaved nape of the neck (100 μl) on day 0. After a resting period of 7 days, mice were treated with 1% oxazolone in acetone/olive oil (4:1 v/v) on the nape of the neck (100 μl) every other day for 10 days. On the day of the experiment, mice were injected with drug or vehicle i.p. under short and light isoflurane anesthesia. […]

α3 GABAA receptor = biological target: T1, α3 GABAA receptor (Mus musculus, UniProt P22723+P26049, H154R); assay: α-Me-5HT-induced itch in HHRH mice (α3-GABAAR DZP-insensitive); format: in vivo; conditions: 10 mg/kg per oral 1 h before 20 μg α-Me-5HT; 20 min
T1 construct: endogenous in cells; host or cells: living HHRH single point-mutated mice (knock-in)
Procedure: Wild-type and GABAAR single point mutated mice in which only α3 is rendered DZP-insensitive (HHRH mice) received per oral injection of 10 mg/kg TP003 or vehicle. One hour after injection, the mice received a 20 μg α-Me-5HT cheek injection to elicit itching. Over the course of twenty minutes scratching bouts directed at the ipsilateral cheek were recorded and TP003 injected mice compared with vehicle injected control mice (FIGS. 8A & 8B).
(§1) Acute itch was assessed in mice that received intradermal microinjections of pruritogens or 0.9% saline into the right cheek, which had been shaved at least one day before the experiment. In two sets of experiments that addressed the contribution of GABAARs in primary and secondary pruritoceptors, pruritogens were injected in the right thigh (FIG. 17). Before injection, mice were acclimatized to a 15 cm diameter cylindrical enclosure for more than 30 min with cage bedding on the ground. […] Videos were analyzed off-line. Scratching of the hind paw directed to the ipsilateral cheek was counted in bouts, with one scratching bout defined as an instance when the mouse lifted its paw to scratch until it returned the paw to the cage floor. In case of experiments in which the pruritogen was injected in the skin of the thigh, the time spent biting the injected skin area was counted in s/min as a measure of itch.

[2] = system: brain membranes prepared from α1,2,3,5 H→R point mutated mice; format: binding, mice (RRRR); conditions: 4 nM [3H]Ro 15-4513; increasing concentrations; n=4
Procedure: The supernatant was centrifuged for 20 min at 30,000 g and the resulting crude membrane pellet was washed once with buffer. […] Non-specific [^3H]Ro 15-4513 binding was assessed by addition of 10 μM flumazenil to the reaction. Incubation was stopped by rapid vacuum filtration using a semiautomatic cell harvester (Skatron Instruments) and washed filters were subjected to liquid scintillation counting.

α5 GABAA receptors = biological target: T2, α5 GABAA receptors (Mus musculus, UniProt P22723+Q8BHJ7); assay: α-Me-5HT-induced itch (cheek injection) in RRRH triple point-mutated mice (α5 only); format: in vivo, mice (129X1/SvJ genetic background); conditions: DZP 10 mg/kg per oral 1 h before 20 μg α-Me-5HT, 20 min
T2 construct: endogenous in cells; host or cells: living triple point-mutated mice with only α5 diazepam-sensitive
Procedure: (§2) Because mice of this particular genetic background (129SvJ) have not yet been systematically analyzed in itch experiments, the inventors first assessed the sensitivity of these mice to a battery of pruritogens injected into the right cheek.
as §1, with “ground. Background white noise generated by a radio in the room at ambient volume was applied to prevent auditory distraction.” for “ground.”

α3 GABAA receptors = biological target: T3, α3 GABAA receptors (Mus musculus, UniProt P22723+P26049); assay: α-Me-5HT-induced itch (cheek injection) in RRHR triple point-mutated mice (α3 only); format: in vivo, mice (129X1/SvJ genetic background)
T3 construct: endogenous in cells; host or cells: living RRHR triple point-mutated mice (129X1/SvJ)
Procedure: as §2
as §1, with “ground. Background white noise generated by a radio in the room at ambient volume was applied to prevent auditory distraction.” for “ground.”

α2 GABAA receptors = biological target: T4, α2 GABAA receptors (Mus musculus, UniProt P22723+P26048); assay: α-Me-5HT-induced itch (cheek injection) in RHRR triple point-mutated mice (α2 only); format: in vivo, mice (129X1/SvJ genetic background)
T4 construct: endogenous in cells; host or cells: living RHRR triple point-mutated mice (129X1/SvJ)
Procedure: as §2
as §1, with “ground. Background white noise generated by a radio in the room at ambient volume was applied to prevent auditory distraction.” for “ground.”

[3] = system: α2, α3 or α5 GABAA receptors; assay: oxazolone contact dermatitis model of chronic itch in GABAAR triple point-mutated mice; format: in vivo, mice (129X1/SvJ genetic background); conditions: 10 mg/kg i.p. on day 18; recorded 4 hours after injection
chloroquine-induced itch = chloroquine-induced itch (cheek injection) in wild-type mice; format: in vivo, wild-type C57BL6/J mice; conditions: 30 mg/kg intraperitoneal; 100 μg chloroquine; 30 min
Procedure: as §1, with “ground. Background white noise generated by a radio in the room at ambient volume was applied to prevent auditory distraction. A 30 gauge needle was inserted bevel-up and pushed 5 mm horizontally into the skin beyond the point of insertion, before injection of the pruritogen (in a total volume of 10 μl). No anesthesia was used. Correct injection was confirmed by the appearance of a slightly domed bulla upon injection.” for “ground.”

T4 sequence (P26048 29-451): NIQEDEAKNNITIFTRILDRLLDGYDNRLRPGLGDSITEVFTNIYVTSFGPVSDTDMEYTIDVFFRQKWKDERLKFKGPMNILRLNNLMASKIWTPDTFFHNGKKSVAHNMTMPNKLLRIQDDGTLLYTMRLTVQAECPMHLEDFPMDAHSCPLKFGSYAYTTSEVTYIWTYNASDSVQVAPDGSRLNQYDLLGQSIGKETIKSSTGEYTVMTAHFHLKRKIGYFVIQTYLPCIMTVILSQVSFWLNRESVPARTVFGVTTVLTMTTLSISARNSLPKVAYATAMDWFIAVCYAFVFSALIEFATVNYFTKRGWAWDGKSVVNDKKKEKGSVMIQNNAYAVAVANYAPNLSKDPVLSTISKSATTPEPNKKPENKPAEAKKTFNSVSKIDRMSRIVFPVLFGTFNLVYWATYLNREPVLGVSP
T4 sequence (P63080 26-473 partner): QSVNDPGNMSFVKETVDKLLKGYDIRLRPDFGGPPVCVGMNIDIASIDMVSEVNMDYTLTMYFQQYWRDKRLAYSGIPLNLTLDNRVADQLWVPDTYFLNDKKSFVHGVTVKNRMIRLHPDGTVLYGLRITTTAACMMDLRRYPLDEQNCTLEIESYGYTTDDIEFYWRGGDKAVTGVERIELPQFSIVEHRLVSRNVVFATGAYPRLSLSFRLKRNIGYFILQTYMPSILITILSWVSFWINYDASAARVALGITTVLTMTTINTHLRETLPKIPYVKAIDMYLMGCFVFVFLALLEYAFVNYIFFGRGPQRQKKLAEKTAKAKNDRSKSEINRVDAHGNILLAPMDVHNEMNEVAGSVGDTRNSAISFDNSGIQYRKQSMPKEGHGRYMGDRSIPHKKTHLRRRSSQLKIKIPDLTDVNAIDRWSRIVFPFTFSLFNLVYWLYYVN
T4 sequence (P22723 39-474): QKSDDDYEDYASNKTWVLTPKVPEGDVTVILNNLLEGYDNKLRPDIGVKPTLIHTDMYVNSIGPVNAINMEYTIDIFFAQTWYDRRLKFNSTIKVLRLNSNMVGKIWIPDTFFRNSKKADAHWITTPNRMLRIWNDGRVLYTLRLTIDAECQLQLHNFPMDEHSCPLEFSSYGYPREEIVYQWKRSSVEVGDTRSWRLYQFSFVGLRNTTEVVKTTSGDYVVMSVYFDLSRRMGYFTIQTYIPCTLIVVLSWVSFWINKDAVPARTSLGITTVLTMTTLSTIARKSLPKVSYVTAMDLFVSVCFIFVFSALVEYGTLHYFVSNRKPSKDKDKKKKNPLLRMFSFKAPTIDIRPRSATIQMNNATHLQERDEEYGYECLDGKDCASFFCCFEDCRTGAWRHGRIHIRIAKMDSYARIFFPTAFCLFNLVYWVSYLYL
T3 sequence (P26049 29-492): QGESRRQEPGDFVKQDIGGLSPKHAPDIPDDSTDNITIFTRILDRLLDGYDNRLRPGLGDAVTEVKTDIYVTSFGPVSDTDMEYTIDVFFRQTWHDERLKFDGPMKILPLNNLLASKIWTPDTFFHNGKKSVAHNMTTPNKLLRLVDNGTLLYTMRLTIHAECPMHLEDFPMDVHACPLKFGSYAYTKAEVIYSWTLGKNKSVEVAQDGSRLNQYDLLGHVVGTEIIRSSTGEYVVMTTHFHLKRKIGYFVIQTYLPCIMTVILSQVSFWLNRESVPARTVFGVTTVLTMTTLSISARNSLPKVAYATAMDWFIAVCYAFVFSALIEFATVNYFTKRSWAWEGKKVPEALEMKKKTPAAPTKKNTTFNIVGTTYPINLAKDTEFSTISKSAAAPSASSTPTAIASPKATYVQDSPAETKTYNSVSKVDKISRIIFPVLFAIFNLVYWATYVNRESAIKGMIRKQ
T3 sequence (P63080 26-473 partner): as the sequence (P63080 26-473 partner) above
T3 sequence (P22723 39-474): as the sequence (P22723 39-474) above
T2 sequence (Q8BHJ7 32-463 limits assumed): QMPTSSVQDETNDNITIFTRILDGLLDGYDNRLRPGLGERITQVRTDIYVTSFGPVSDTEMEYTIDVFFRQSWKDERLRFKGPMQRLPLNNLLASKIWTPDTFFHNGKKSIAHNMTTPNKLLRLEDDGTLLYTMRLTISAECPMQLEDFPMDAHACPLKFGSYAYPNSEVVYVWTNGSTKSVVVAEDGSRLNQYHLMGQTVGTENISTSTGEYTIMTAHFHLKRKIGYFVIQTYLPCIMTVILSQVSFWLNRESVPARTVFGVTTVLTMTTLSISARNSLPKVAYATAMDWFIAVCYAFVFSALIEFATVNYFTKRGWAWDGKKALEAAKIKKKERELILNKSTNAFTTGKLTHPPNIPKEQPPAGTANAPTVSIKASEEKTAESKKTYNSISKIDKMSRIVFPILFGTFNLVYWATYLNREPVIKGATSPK
T2 sequence (P63080 26-473 partner): as the sequence (P63080 26-473 partner) above
T2 sequence (P22723 39-474): as the sequence (P22723 39-474) above
T1 sequence (P26049 29-492 H154R): as the sequence (P26049 29-492) above, with H126R counted along it
T1 sequence (P63080 26-473 partner): as the sequence (P63080 26-473 partner) above
T1 sequence (P22723 39-474): as the sequence (P22723 39-474) above

## CC(N)Cc1c[nH]c2ccc(O)cc12 (stereo not drawn) [α-methyl 5-HT, α-methyl-5-hydroxy-tryptamine]
α-Me-5HT-induced itch; different doses injected into the right cheek, wild-type 129X1/SvJ, 30 min
  scratching behavior directed to the injected site: dose-dependent robust scratching behavior

## O=C1CC(=O)N(c2ccccc2)c2cc(Cl)ccc2N1 [NDMC, N-desmethyl clobazam]
[1]
  scratching bouts directed at the nape of the neck vs vehicle: significant reduction in scratching bouts

## CC(C)(O)c1ccn2c(-c3ccc(F)c(-c4ccc(F)cc4C#N)c3)cnc2c1F [TP003, 4,2′-difluoro-5′-[8-fluoro-7-(1-hydroxy-1-methylethyl)imidazo[1,2-a]pyridin-3-yl]biphenyl-2-carbonitrile]
α3 GABAA receptor
  antipruritic effect in HHRH mice: absent
α-Me-5HT-induced itch; wild-type 129X1/SvJ mice, 10 mg/kg per oral 1 h before 20 μg α-Me-5HT, 20 min
  scratching bouts directed at the ipsilateral cheek vs vehicle: significant reduction of scratching bouts

## CC(C)(C)OC(=O)c1ncn2c1[C@@H]1CCCN1C(=O)c1c(Br)cccc1-2 [bretazenil]
[2]
  displacement of [3H]Ro 15-4513 binding: dose-dependently inhibited

## CN1C(=O)CN=C(c2ccccc2)c2cc(Cl)ccc21 [DZP, Diazepam]
α5 GABAA receptors
  scratching bouts directed at the ipsilateral cheek vs vehicle: no significant reduction in scratching bouts
α3 GABAA receptors; RRHR mice (FIG. 2C), oral DZP 1 h before 20 μg α-Me-5HT
  dose-dependence of antipruritic effects: dose-dependent antipruritic effects
α3 GABAA receptors; RRHR mice (α3 only), DZP 10 mg/kg per oral 1 h before 20 μg α-Me-5HT, 20 min
  scratching bouts directed at the ipsilateral cheek vs vehicle: significant reduction of scratching bouts
α2 GABAA receptors; RHRR mice (α2 only), DZP 10 mg/kg per oral 1 h before 20 μg α-Me-5HT, 20 min
  scratching bouts directed at the ipsilateral cheek vs vehicle: significant reduction of scratching bouts
α2 GABAA receptors; RHRR mice, 0.1, 0.3, 1, 3, 10 and 30 mg/kg per oral 1 h before 20 μg α-Me-5HT, 30 min
  dose-response of scratching bouts: dose-dependent reduction of scratching bouts
[3]
  number of scratching bouts directed at the nape of the neck vs vehicle: significant reduction in the number of scratching bouts

## CC(=O)[C@H]1CC[C@H]2[C@@H]3CC[C@H]4C[C@](C)(O)CC[C@]4(C)[C@H]3CC[C@]12C [ganaxolone]
chloroquine-induced itch
  number of scratching bouts vs vehicle: significant reduction in number scratching bouts
